Data: US20250060373A1, “NOVEL ASSAY AND NOVEL METHODS OF TREATING HUTCHINSON-GILFORD PROGERIA SYNDROME” (The Progeria Research Foundation, priority 2021, published 2025)

Tests used:
plasma progerin = test: Plasma progerin (SMC Progerin Immunoassay) in HGPS clinical trial patients on therapy; type: in vivo, human
Excerpt: An SMC ultrasensitive immunoassay for the detection of plasma progerin was developed. Overall, the assay employed a sandwich immunoassay format with an anti-lamin A capture antibody coated on magnetic microparticles, and an anti-progerin specific detection antibody conjugated to a fluorescent tag (FIG. 1) run in a 96-well plate. Progerin-bound detection antibody was eluted and read as single molecules using a confocal laser.
The SMC assay for measuring Progerin was as previously described (Todd et al.), except that magnetic microparticles (MP) coated with capture antibodies and detection reagents were specific to the progerin assay (FIG. 1). […] Progerin-bound detection antibody was then eluted by pH shift using a proprietary glycine buffer, transferred to a new plate and detected by SMC using the Erenna Immunoassay System software (SgxLink™). The raw signal data and the interpolated value data obtained from SgxLink were transferred to Excel where precision was then calculated for the replicate wells. […]
For analysis, samples were fully thawed at RT for <5 min, lightly mixed, diluted in standard diluent before transferring into filter plate wells (MilliporeSigma MSBVN1210). […] Filtrate was then assessed as described. […]

children with HGPS = children with HGPS treated with lonafarnib in clinical trials; cited from earlier work

NC(=O)N1CCC(CC(=O)N2CCC([C@H]3c4ncc(Br)cc4CCc4cc(Cl)cc(Br)c43)CC2)CC1 [lonafarnib]
average progerin, lonafarnib monotherapy extension visits versus consecutive Triple Therapy visits (plasma progerin; 10 patients, extension of additional 4.1±0.5 years, p=0.99): no significant differences | progerin at 150 mg/m^2 versus the 115 mg/m^2 dose (plasma progerin; ProLon1, each of the 4 trial visits after the 8-month visit, N=22-25, all p<0.05): significantly decreased | increased survival, estimated, on average (children with HGPS): 2.5 years
